According to ChEMBL document CHEMBL2069287, “Salidroside protects human erythrocytes against hydrogen peroxide-induced apoptosis” (J Nat Prod, 2012):
Calls of active or inactive are those of the source. The calls are words filed in the database; no cut-off is given here.

Tests used:
[1] = Induction of eryptosis in human erythrocytes assessed as late apoptotic cells at 100 uM after 24 hrs by PE-annexinV/calcein flow cytometric assay (reference value: 0%); format: cell-based; settings: erythrocyte
[2] = Induction of eryptosis in human erythrocytes assessed as late apoptotic cells at 300 uM after 24 hrs by PE-annexinV/calcein flow cytometric assay (reference value: 0%); format: cell-based; settings: erythrocyte
Erythrocyte [3] = test: Cytoprotective activity against H202-induced apoptosis in human erythrocytes assessed as decrease in cytosolic free calcium level after 24 hrs by PE-annexinV/Fluor4 flow cytometric analysis; format: functional, cell-based
Erythrocyte [4] = test: Cytoprotective activity against H202-induced apoptosis in human erythrocytes assessed as decrease in phosphatidylserine externalization after 24 hrs by PE-annexinV/Fluor4 flow cytometric analysis; format: functional, cell-based
Erythrocyte [5] = test: Cytoprotective activity in human erythrocytes assessed as decrease in caspase-3-mediated FAM-DEVD-FMK cleavage at 100 uM after 24 hrs by fluorometric assay (reference value: 0.28%); format: functional; set-up: scale not given: the % may be the effect or the level left
Erythrocyte [6] = test: Cytoprotective activity in human erythrocytes assessed as decrease in caspase-3-mediated FAM-DEVD-FMK cleavage at 300 uM after 24 hrs by fluorometric assay (reference value: 0.28%); format: functional; set-up: scale not given: the % may be the effect or the level left
Erythrocyte [7] = test: Cytoprotective activity in human erythrocytes assessed as decrease in H202-induced caspase-3-mediated FAM-DEVD-FMK cleavage after 24 hrs by fluorometric assay; format: functional, cell-based
Erythrocyte [8] = test: Cytoprotective activity in human erythrocytes assessed as decrease in H202-induced caspase-3-mediated FAM-DEVD-FMK cleavage at 100 uM after 24 hrs by fluorometric assay (reference value: 51.22%); format: functional; set-up: scale not given: the % may be the effect or the level left
Erythrocyte [9] = test: Cytoprotective activity in human erythrocytes assessed as decrease in H202-induced caspase-3-mediated FAM-DEVD-FMK cleavage at 300 uM after 24 hrs by fluorometric assay (reference value: 51.22%); format: functional; set-up: scale not given: the % may be the effect or the level left
Erythrocyte [10] = test: Cytoprotective activity in human erythrocytes assessed as decrease in ionomycin-induced cytosolic free calcium level at 100 uM after 24 hrs by Fluo4 staining-based assay (reference value: 1.76%); format: functional; set-up: scale not given: the % may be the effect or the level left
Erythrocyte [11] = test: Cytoprotective activity in human erythrocytes assessed as decrease in ionomycin-induced cytosolic free calcium level at 300 uM after 24 hrs by Fluo4 staining-based assay (reference value: 57.79%); format: functional; set-up: scale not given: the % may be the effect or the level left
Erythrocyte [12] = test: Cytoprotective activity in human erythrocytes assessed as decrease in STS-mediated caspase3 activation at 100 uM after 24 hrs by fluorimetric assay (reference value: 58.78%); format: functional; set-up: scale not given: the % may be the effect or the level left
Erythrocyte [13] = test: Cytoprotective activity in human erythrocytes assessed as decrease in STS-mediated caspase3 activation at 300 uM after 24 hrs by fluorimetric assay (reference value: 58.78%); format: functional; set-up: scale not given: the % may be the effect or the level left
Erythrocyte [14] = test: Antioxidant activity in human erythrocytes assessed as decrease in H202-induced ROS production after 24 hrs by DCF-based flow cytometric analysis; format: functional, cell-based
[15] = Antioxidant activity in human erythrocytes assessed as decrease in H202-induced ROS production at 100 uM after 24 hrs by DCF-based flow cytometric analysis (reference value: 68.32%); format: functional, Erythrocyte; set-up: scale not given: the % may be the effect or the level left
[16] = Antioxidant activity in human erythrocytes assessed as decrease in H202-induced ROS production at 300 uM after 24 hrs by DCF-based flow cytometric analysis (reference value: 68.32%); format: functional, Erythrocyte; set-up: scale not given: the % may be the effect or the level left
[17] = Toxicity in human erythrocytes assessed as hemolysis up to 800 uM after 2 hrs by spectrophotometry; format: cell-based; settings: erythrocyte
[18] = Toxicity in human erythrocytes assessed as hemolysis up to 400 uM after 24 hrs by spectrophotometry; format: cell-based; settings: erythrocyte
Erythrocyte [19] = test: Cytoprotective activity in human erythrocytes assessed as protection against H202-induced hemolysis from 2 to 24 hrs by spectrophotometry; format: functional, cell-based
Erythrocyte [20] = test: Cytoprotective activity in human erythrocytes assessed as protection against H202-induced hemolysis at 50 to 100 uM from 2 to 24 hrs by spectrophotometry; format: functional, cell-based
Erythrocyte [21] = test: Cytoprotective activity against H202-induced eryptosis in human erythrocytes assessed as viable cells at 100 uM after 24 hrs by PE-annexinV/calcein flow cytometric assay (reference value: 63.38%); format: functional; settings: read-out: Activity
Erythrocyte [22] = test: Cytoprotective activity against H202-induced eryptosis in human erythrocytes assessed as viable cells at 300 uM after 24 hrs by PE-annexinV/calcein flow cytometric assay (reference value: 63.38%); format: functional; settings: read-out: Activity
Erythrocyte [23] = test: Cytoprotective activity against H202-induced eryptosis in human erythrocytes assessed as very early apoptotic cells at 100 uM after 24 hrs by PE-annexinV/calcein flow cytometric assay (reference value: 27.15%); format: functional
Erythrocyte [24] = test: Cytoprotective activity against H202-induced eryptosis in human erythrocytes assessed as very early apoptotic cells at 300 uM after 24 hrs by PE-annexinV/calcein flow cytometric assay (reference value: 27.15%); format: functional
Erythrocyte [25] = test: Cytoprotective activity against H202-induced eryptosis in human erythrocytes assessed as early apoptotic cells at 100 uM after 24 hrs by PE-annexinV/calcein flow cytometric assay (reference value: 9.34%); format: functional
Erythrocyte [26] = test: Cytoprotective activity against H202-induced eryptosis in human erythrocytes assessed as early apoptotic cells at 300 uM after 24 hrs by PE-annexinV/calcein flow cytometric assay (reference value: 9.34%); format: functional
Erythrocyte [27] = test: Cytoprotective activity against H202-induced eryptosis in human erythrocytes assessed as late apoptotic cells at 100 uM after 24 hrs by PE-annexinV/calcein flow cytometric assay (reference value: 0.13%); format: functional
Erythrocyte [28] = test: Cytoprotective activity against H202-induced eryptosis in human erythrocytes assessed as late apoptotic cells at 300 uM after 24 hrs by PE-annexinV/calcein flow cytometric assay (reference value: 0.13%); format: functional
[29] = Induction of eryptosis in human erythrocytes assessed as viable cells at 100 uM after 24 hrs by PE-annexinV/calcein flow cytometric assay (reference value: 97.21%); format: cell-based, Erythrocyte; settings: read-out: Activity
[30] = Induction of eryptosis in human erythrocytes assessed as viable cells at 300 uM after 24 hrs by PE-annexinV/calcein flow cytometric assay (reference value: 97.21%); format: cell-based, Erythrocyte; settings: read-out: Activity
[31] = Induction of eryptosis in human erythrocytes assessed as very early apoptotic cells at 100 uM after 24 hrs by PE-annexinV/calcein flow cytometric assay (reference value: 0.2%); format: cell-based; settings: erythrocyte
[32] = Induction of eryptosis in human erythrocytes assessed as very early apoptotic cells at 300 uM after 24 hrs by PE-annexinV/calcein flow cytometric assay (reference value: 0.2%); format: cell-based; settings: erythrocyte
[33] = Induction of eryptosis in human erythrocytes assessed as early apoptotic cells at 100 uM after 24 hrs by PE-annexinV/calcein flow cytometric assay (reference value: 2.59%); format: cell-based; settings: erythrocyte
[34] = Induction of eryptosis in human erythrocytes assessed as early apoptotic cells at 300 uM after 24 hrs by PE-annexinV/calcein flow cytometric assay (reference value: 2.59%); format: cell-based; settings: erythrocyte

OC[C@H]1O[C@@H](OCCc2ccc(O)cc2)[C@H](O)[C@@H](O)[C@@H]1O [SALIDROSIDE]
Activity [1]: 0% | Activity [2]: 0% | Activity (Erythrocyte [3]): Dose-dependent effect | Activity (Erythrocyte [4]): Dose-dependent effect | Activity (Erythrocyte [5]): 0.23% | Activity (Erythrocyte [6]): 0.22% | Activity (Erythrocyte [7]): Dose-dependent effect | Activity (Erythrocyte [8]): 42.12% | Activity (Erythrocyte [9]): 37.71% | Activity (Erythrocyte [10]): 48.77% | Activity (Erythrocyte [11]): 46.24% | Activity (Erythrocyte [12]): 49.38% | Activity (Erythrocyte [13]): 47.16% | Activity (Erythrocyte [14]): Dose-dependent effect | Activity [15]: 58.82% | Activity [16]: 51.39% | Activity [17]: Non-toxic | Activity [18]: Non-toxic | Activity (Erythrocyte [19]): Dose-dependent effect | Activity (Erythrocyte [20]): Active | viability at 100 µM (Erythrocyte [21]): 70.4% | viability at 300 µM (Erythrocyte [22]): 74.7% | Activity (Erythrocyte [23]): 17.01% | Activity (Erythrocyte [24]): 14.16% | Activity (Erythrocyte [25]): 12.38% | Activity (Erythrocyte [26]): 11.08% | Activity (Erythrocyte [27]): 0.18% | Activity (Erythrocyte [28]): 0.11% | viability at 24 h, 100 µM [29]: 97.5% | viability at 24 h, 300 µM [30]: 97.5% | Activity [31]: 0.14% | Activity [32]: 0.04% | Activity [33]: 2.38% | Activity [34]: 2.46%
